Assay results published in US20080235824A1, “Use of Esterase Genes as Selectable Markers for Transforming Plant Cells” (priority 2006, published 2008).

Columns and labels:
[1] = test system: rice grain explants; test: Survival of rice grain explants on regeneration medium with Span 20; type: cell-based, Oryza sativa japonica var. TP-309; conditions: for Survival of rice grain explants on regeneration medium: surviving/total explants
Protocol: Span 20 was evaluated as a potential selective agent for use in transformation of rice (Oryza sativa japonica var. TP-309) in a manner similar to that described in Examples 1 and 2, except that the regeneration (shooting) medium used was appropriate for regeneration of rice from callus produced from seeds (Hiei et al., 1997). Selection of rice normally requires longer periods of time than geranium or tomato.

[2] = test system: tobacco cultivar Xanthi leaf explants; test: Agrobacterium transformation of tobacco with selection on detergent or kanamycin; type: cell-based, Nicotiana tabacum; conditions: pIPG833 bovine PGE, 0.5% Span 20, 70 explants
[3] = test system: rice var. TP-309 callus produced from seeds; test: Agrobacterium transformation of rice with selection on Span 20; type: cell-based, Oryza sativa japonica var. TP-309; conditions: for No. of rooted shoots / Transformation frequency (%) / No. of shoots emerged from seed-derived callus: rice TP-309, pIPG833 bovine PGE, 60 explants; for Transformation frequency (%): confirmed by PCR; for No. of shoots emerged from seed-derived callus: half in root medium
Excerpt: Transgenic rice (Oryza sativa japonica var. TP-309) plants were created using the Agrobacterium tumefaciens DNA delivery method and pIPG833, using callus produced from seeds (Hiei et al., 1997). Selection of was on 1% and 0.5% Span 20 added to shoot regeneration medium; any shoots that emerged were excised from the callus and transferred to root regeneration medium supplemented with Span 20 at one half the concentration used in the shoot regeneration medium. Span 20 at 1% concentration killed over 90% of the callus pieces after 15 weeks and since no shoots emerged, the experiment was terminated. However, three shoots out of 60 rice seeds initially placed into tissue culture emerged on Span 20 and two of these were positive for bovine PGE.

[4] = test system: geranium petiole explants; test: Survival of geranium petiole explants on regeneration medium with detergents; type: cell-based, Pelargonium X hortorum; conditions: for Survival of geranium petiole explants on regeneration medium: surviving/total explants
Protocol: Tween 20, a nonionic, fatty acid ester detergent, was evaluated as a potential selective agent for use in geranium (Pelargonium X hortorum) transformation experiments by placing geranium petiole explants into tissue culture with the addition to Tween 20 to the regeneration (shooting) medium normally used in geranium transformations (Robichon et al., 1995). Tween 20 was added at three concentrations: 1%, 0.1% and 0.01%. Each treatment consisted of 40 sterilized petiole explants placed in four tissue culture plates carrying 10 explants each. Survival of the explants was assayed weekly over four weeks on these media. Potential selective agent Span 20, also a nonionic, fatty acid ester detergent, was similarly evaluated, except that concentrations of 1%, 0.5% and 0.25% were evaluated over a twelve week period of time. The nonionic detergent Triton X-100, which is not a fatty acid ester detergent, was included for comparative purposes.

[5] = test system: geranium cv. Avenida leaf petiole explants; test: Agrobacterium transformation of geranium with selection on Span 20 or hygromycin; type: cell-based, Pelargonium X hortorum; conditions: for No. of rooted shoots / Transformation frequency (%) / No. of independent petiole explants forming shoots: geranium Avenida, pIPG833 bovine PGE, 160 explants; for Transformation frequency (%): confirmed by PCR; for No. of independent petiole explants forming shoots: half in root medium; for Leaf petioles killed: Span 20 at 1%
Excerpt: Transgenic geranium (Pelargonium X hortorum) cv. “Avenida” plants were created using the Agrobacterium tumefaciens DNA delivery method [Riggs et al., 2001; Sun et al., 2006] using pIPG833. Selection of leaf petiole explants was on 1%, 0.5% and 0.25% Span 20 added to shoot regeneration medium; beginning after three weeks, any shoots that emerged were excised from the petiole piece and transferred to root regeneration medium supplemented with Span at one half the concentration used in the shoot regeneration medium. As a control for comparative purposes, pIPG835 was used (carrying the hygromycin antibiotic resistance gene) for transformation and 10 micrograms/ml hygromycin was used for selection. Span 20 at 1% concentration killed 35% of the leaf petioles after three weeks, and 100% of the petioles after 10 weeks, and no shoots emerged. Span 20 at 0.5% concentration was highly efficient for geranium transformation, allowing no escapes and giving the same confirmed transformation frequency as Span 20 at 0.25%.

[6] = test system: tobacco cultivar Xanthi leaf explants; test: Agrobacterium transformation of tobacco with selection on detergent or kanamycin; type: cell-based, Nicotiana tabacum; conditions: for Transformation frequency (%): confirmed by PCR
Excerpt: Transgenic tobacco (Nicotiana tabacum) cultivar “Xanthi” plants were created using the Agrobacterium tumefaciens DNA delivery method [Horsch et al., 1985] using pIPG833. Selection was on 1% or on 0.05% Tween 20 added to both shoot and root regeneration media. As a control for comparative purposes, pIPG786 was used (carrying the nptII gene for kanamycin resistance) for transformation and 100 micrograms/ml kanamycin was used for selection.
Transgenic tobacco (Nicotiana tabacum) cultivar “Xanthi” plants were created using the Agrobacterium tumefaciens DNA delivery method [Horsch et al., 1985] using pIPG833. Selection was on 1% or on 0.05% Span 20 added to both shoot and root regeneration media.
Transgenic tobacco (Nicotiana tabacum) cultivar “Xanthi” plants were created using the Agrobacterium tumefaciens DNA delivery method [Horsch et al., 1985] using pIPG875. Selection was on 1% Span 20 added to the shoot regeneration medium and 0.05% Span 20 added to the root regeneration medium.

[7] = tobacco Xanthi, nematode lipase (pIPG875), 1% Span 20 shoot medium, 0.05% root medium, 50 explants
[8] = tobacco Xanthi, pIPG833 bovine PGE, 0.5% Span 20, 70 explants
[9] = tobacco Xanthi, pIPG833 bovine PGE, 1% Span 20, 75 explants

CCCCCCCCCCCC(=O)OCC(O)C1OCC(O)C1O (stereo not drawn) [Span 20]
Survival of rice grain explants on regeneration medium ([1]; 0.5% Span 20, Week 4): 60/60
Survival of rice grain explants on regeneration medium ([1]; 0.5% Span 20, Week 14): 12/60
Survival of rice grain explants on regeneration medium ([1]; 0.5% Span 20, Week 20): 2/60
Survival of rice grain explants on regeneration medium ([1]; 1% Span 20, Week 4): 60/60
Survival of rice grain explants on regeneration medium ([1]; 1% Span 20, Week 14): 5/60
Survival of rice grain explants on regeneration medium ([1]; 1% Span 20, Week 20): 0/60
Killing of rice explants in tissue culture (in words) ([1]; 1% Span 20, summary of Table 3): completely killed all rice explants in twenty weeks
No. of rooted shoots [2]: 28
No. of rooted shoots ([3]; 0.5% Span 20): 2
Transformation frequency (%) ([3]; 0.5% Span 20): 3%
No. of shoots emerged from seed-derived callus ([3]; 0.5% Span 20 shoot medium): 3
No. of rooted shoots ([3]; 1% Span 20): 0
Transformation frequency (%) ([3]; 1% Span 20): 0%
No. of shoots emerged from seed-derived callus ([3]; 1% Span 20 shoot medium): 0
Callus pieces killed ([3]; rice, pIPG833, Span 20 at 1%, after 15 weeks): over 90%
Survival of geranium petiole explants on regeneration medium ([4]; 0.5% detergent, Week 1): 46/46
Survival of geranium petiole explants on regeneration medium ([4]; 0.5% detergent, Week 3): 35/46
Survival of geranium petiole explants on regeneration medium ([4]; 0.5% detergent, Week 7): 23/46
Survival of geranium petiole explants on regeneration medium ([4]; 0.5% detergent, Week 12): 5/46
Survival of geranium petiole explants on regeneration medium ([4]; 1% detergent, Week 1): 114/114
Survival of geranium petiole explants on regeneration medium ([4]; 1% detergent, Week 3): 74/114
Survival of geranium petiole explants on regeneration medium ([4]; 1% detergent, Week 7): 11/114
Survival of geranium petiole explants on regeneration medium ([4]; 1% detergent, Week 12): 0/114
Killing of geranium explants in tissue culture (in words) ([4]; summary of Table 1): required twelve weeks to completely kill all geranium explants at the 1% level
No. of rooted shoots ([5]; 0.25% Span 20): 33
Transformation frequency (%) ([5]; 0.25% Span 20): 4%
No. of independent petiole explants forming shoots ([5]; 0.25% Span 20 shoot medium): 33
No. of rooted shoots ([5]; 0.5% Span 20): 6
Transformation frequency (%) ([5]; 0.5% Span 20): 4%
No. of independent petiole explants forming shoots ([5]; 0.5% Span 20 shoot medium): 6
No. of rooted shoots ([5]; 1% Span 20): 0
Transformation frequency (%) ([5]; 1% Span 20): 0%
No. of independent petiole explants forming shoots ([5]; 1% Span 20 shoot medium): 0
Nontransgenic escape plants ([5]; geranium, pIPG833, Span 20 at 0.25% in shooting medium and 0.125% in rooting medium): 81%
Leaf petioles killed ([5]; geranium, pIPG833, after 10 weeks): 100%
Leaf petioles killed ([5]; geranium, pIPG833, after three weeks): 35%
Tissue provided with pIPG833 producing shoots ([6]; regeneration medium with 0.05% detergent): 41%
Tobacco leaf material provided with bovine PGE on pIPG833 producing green shoots ([6]; regeneration medium with 1% detergent): 17%
No. of independent calli forming shoots [6, 7]: 23
No. of rooted shoots [6, 7]: 10
Transformation frequency (%) [6, 7]: 39%
Transformation efficiency ([6]; tobacco Xanthi, pIPG833, detergent at the 0.05% level): 12%
No. of independent calli forming shoots [6, 8]: 29
Transformation frequency (%) [6, 8]: 12%
No. of rooted shoots [6, 9]: 13
Transformation frequency (%) [6, 9]: 8%
No. of independent calli forming shoots ([6]; tobacco Xanthi, pIPG833 bovine PGE, 1% Span 20 in shoot and root media, 75 explants): 13
Fate of shoots on rooting medium ([6]; tobacco, pIPG875 nematode lipase, 0.05% Span 20 on rooting medium): more than half of the shoots died
